pEC50, pIC50, pKi: −log10 of the molar value. Where two headings read alike, the source gives them in different places.
How the values were obtained:
[1] = tested on: MM1.S (multiple myeloma) cells; experiment: In vitro cell proliferation potency assay (Cell Titer Glo), MM1.S cells; assay type: cell-based; conditions: Homo sapiens, MM1.S cells, 72 hours, read-out: Prolif MM1S ATP (EC50)
Procedure: BaF3 parental line was obtained from the DSMZ repository. BaF3 lines transfected with PIM1 or PIM2 were generated. Mouse IL-3 was purchased from R&D Systems. G418 was purchased from Clontech. Media for BaF3 parental line contained RPMI, 10% FBS, 2 mM L-Glutamine, 2 ng/mL mIL-3. Media for BaF3 PIM1 & 2 lines contained RPMI, 10% FBS, 2 mM L-Glutamine, […]. Media for MM1.S (multiple myeloma cells) line contained RPMI, 10% FBS, 2 mM L-Glutamine.
BaF3, a murine interleukin-3 dependent pro-B cell line, parental cells, BaF3 PIM1 cells, BaF3 PIM2 cells, and MM1.S (multiple myeloma) cells were seeded at 2 k/well, 5 k/well, 5 k/well, and 10 k/well respectively, in a 384-well plate, at 45 μL/well. Test compound was added at 5 μL/well. BaF3 cells (parental and transfected) were incubated overnight, while MM1.S cells were incubated for 72 hours at 37° C., 5% CO2. CELL TITER GLO® Reagent (Promega) was added at 50 μL/well, the plates were incubated for 30 minutes, and their luminescence read on an HT Analyst. IC50/EC50 values for the test compound were calculated.

PIM2 = PIM2 (Homo sapiens (Human), UniProt Q9P1W9); experiment: Pim kinase binding activity, Caliper LC3000 microfluidic peptide phosphorylation assay, PIM2; assay type: biochemical; conditions: 10 μM ATP, 90 min, room temperature; read-out: PIM2 LC3K (KI)
Summary of the method: (§1)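 Read-out is microfluidic electrophoretic separation of phosphorylated from unphosphorylated fluorescent Pim peptide, with Ki calculated from conversion. Reactions ran 90 min at room temperature in HEPES pH 7.2 containing MgCl2, Tween 20 and DTT, ended by EDTA-containing buffer.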

PIM3 = PIM3 (Homo sapiens (Human), UniProt Q86V86); experiment: Pim kinase binding activity, Caliper LC3000 microfluidic peptide phosphorylation assay, PIM3; assay type: biochemical; conditions: 10 μM ATP, 90 min, room temperature; read-out: PIM3 LC3K (KI)
Summary of the method: as §1

BaF3 PIM1 cells = experiment: In vitro cell proliferation potency assay (Cell Titer Glo), BaF3 PIM1 cells; assay type: cell-based, murine; conditions: read-out: Prolif BaF3_PIM 1 (IC50)
PIM1 = PIM1 (Homo sapiens (Human), UniProt P11309); experiment: biochemical; assay type: biochemical; conditions: 10 μM ATP, 90 min, room temperature; read-out: PIM1 LC3K (KI)
Summary of the method: as §1

[2] = Mus musculus, BaF3, BaF3 cells transfected with PIM1, incubated overnight

Sequence of PIM1 (P11309 whole entry): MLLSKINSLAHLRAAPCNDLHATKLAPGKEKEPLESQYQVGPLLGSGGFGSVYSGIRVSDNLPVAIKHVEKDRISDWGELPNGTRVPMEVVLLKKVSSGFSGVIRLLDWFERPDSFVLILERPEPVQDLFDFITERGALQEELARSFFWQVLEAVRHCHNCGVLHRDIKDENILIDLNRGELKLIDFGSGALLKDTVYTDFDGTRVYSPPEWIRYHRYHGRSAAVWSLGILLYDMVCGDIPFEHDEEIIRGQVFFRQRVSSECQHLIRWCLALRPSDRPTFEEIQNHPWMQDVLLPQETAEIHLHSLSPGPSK
Sequence of PIM2 (Q9P1W9 whole entry): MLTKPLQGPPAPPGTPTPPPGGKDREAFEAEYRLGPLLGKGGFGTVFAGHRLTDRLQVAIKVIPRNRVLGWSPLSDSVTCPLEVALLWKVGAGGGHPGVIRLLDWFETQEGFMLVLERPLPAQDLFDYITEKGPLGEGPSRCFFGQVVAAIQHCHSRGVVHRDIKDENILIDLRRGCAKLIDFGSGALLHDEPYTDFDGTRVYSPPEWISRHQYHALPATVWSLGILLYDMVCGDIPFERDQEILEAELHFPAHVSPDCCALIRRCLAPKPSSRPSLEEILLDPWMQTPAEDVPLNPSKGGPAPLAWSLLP

Structure (SMILES)	pEC50 [1]	pKi (PIM2)	pKi (PIM3)	pIC50 (BaF3 PIM1 cells; BaF3 cells transfected with PIM1, incubated overnight)	pKi (PIM1)	pIC50 (BaF3 PIM1 cells; [2])	pEC50 ([1]; MM1.S, 72 h)
Cc1cncc(-c2cc3c(cn2)cnn3-c2cccc(N3CCNC(C)C3)n2)n1 (single isomer, unassigned) [Compound 185, 1-[6-(3-methylpiperazin-1-yl)-2-pyridyl]-6-(6-methylpyrazin-2-yl)pyrazolo[4,3-c]pyridine]	5.32	9.27	10.66	6.40	10.22	–	–
c1cc(N2CCCNCC2)nc(-n2ncc3cnc(-c4cnn(C5CC5)c4)cc32)c1 [Compound 174, 1-(6-(1,4-Diazepan-1-yl)pyridin-2-yl)-6-(1-cyclopropyl-1H-pyrazol-4-yl)-1H-pyrazolo[4,3-c]pyridine]	5.51	9.01	10.10	–	10.16	6.57	–
CC(C)n1cc(-c2cc3c(cn2)cnn3-c2cccc(N3CCCNCC3)n2)cn1 [Compound 146, 1-(6-(1,4-Diazepan-1-yl)pyridin-2-yl)-6-(1-isopropyl-1H-pyrazol-4-yl)-1H-pyrazolo[4,3-c]pyridine]	5.37	8.11	9.18	–	9.27	6.10	–
Cn1ncc(-c2cc3c(cn2)cnn3-c2ccccc2F)c1N1CCC(N)CC1 [Compound 316, 1-(4-(1-(2-fluorophenyl)-1H-pyrazolo[4,3-c]pyridin-6-yl)-1-methyl-1H-pyrazol-5-yl)piperidin-4-amine]	–	6.47	7.32	–	7.81	< 4.60	< 4.60
c1cc(N2CCCNCC2)nc(-n2ncc3cnc(-c4cnn(C5CCC5)c4)cc32)c1 [Compound 147, 1-(6-(1,4-Diazepan-1-yl)pyridin-2-yl)-6-(1-cyclobutyl-1H-pyrazol-4-yl)-1H-pyrazolo[4,3-c]pyridine]	5.57	8.41	9.59	–	9.67	6.06	–
N[C@H]1CCC[C@@H]1Oc1cncc(-c2cc3c(cn2)cnn3-c2ccccn2)n1 [Compound 304, (1S,2S)-2-(6-(1-(pyridin-2-yl)-1H-pyrazolo[4,3-c]pyridin-6-yl)pyrazin-2-yloxy)cyclopentanamine]	5.92	9.13	10.15	–	10.03	6.59	–
Cc1cncc(-c2cc3c(cn2)cnn3-c2cccc(N3CCNCC3)n2)n1 [Compound 123, 6-(6-methylpyrazin-2-yl)-1-(6-(piperazin-1-yl)pyridin-2-yl)-1H-pyrazolo[4,3-c]pyridine]	–	9.05	10.30	–	10.02	6.55	5.41

Source: patent US9434725B2, “5-azaindazole compounds and methods of use” (priority 2012, dated 2016)
